The source of these data is US9067922B2, “Chemical compounds” (Pfizer Limited, priority 2013, dated 2015).

The experiment has as its target URAT-1 transporter (Homo sapiens (Human), UniProt Q96S37). Nature of the experiment: URAT-1 inhibitor activity: [14C]-uric acid uptake in CHO-URAT1(L)GFP#8 (CHO#8) cells, scintillation proximity. Type of experiment: cell-based. Conditions: inhibition of [14C]-uric acid (30 nM) uptake into CHO#8 cells; compound 0 to 10 μM; 4 parameter logistic fit. In a few lines: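 CHO cells stably expressing human URAT1 long isoform–eGFP fusion, pre-incubated 1 h in chloride-containing buffer pH 7.4, then given 30 nM [14C]-uric acid with compound (0–10 μM, 0.25% DMSO) in chloride-free gluconate buffer pH 7.4. Uptake measured by scintillation proximity on Cytostar plates.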
(Scintillation proximity formats need no separation of bound from free tracer.)

Chain of URAT-1 transporter (Q96S37 other isoform, or with tags, fused parts or gaps): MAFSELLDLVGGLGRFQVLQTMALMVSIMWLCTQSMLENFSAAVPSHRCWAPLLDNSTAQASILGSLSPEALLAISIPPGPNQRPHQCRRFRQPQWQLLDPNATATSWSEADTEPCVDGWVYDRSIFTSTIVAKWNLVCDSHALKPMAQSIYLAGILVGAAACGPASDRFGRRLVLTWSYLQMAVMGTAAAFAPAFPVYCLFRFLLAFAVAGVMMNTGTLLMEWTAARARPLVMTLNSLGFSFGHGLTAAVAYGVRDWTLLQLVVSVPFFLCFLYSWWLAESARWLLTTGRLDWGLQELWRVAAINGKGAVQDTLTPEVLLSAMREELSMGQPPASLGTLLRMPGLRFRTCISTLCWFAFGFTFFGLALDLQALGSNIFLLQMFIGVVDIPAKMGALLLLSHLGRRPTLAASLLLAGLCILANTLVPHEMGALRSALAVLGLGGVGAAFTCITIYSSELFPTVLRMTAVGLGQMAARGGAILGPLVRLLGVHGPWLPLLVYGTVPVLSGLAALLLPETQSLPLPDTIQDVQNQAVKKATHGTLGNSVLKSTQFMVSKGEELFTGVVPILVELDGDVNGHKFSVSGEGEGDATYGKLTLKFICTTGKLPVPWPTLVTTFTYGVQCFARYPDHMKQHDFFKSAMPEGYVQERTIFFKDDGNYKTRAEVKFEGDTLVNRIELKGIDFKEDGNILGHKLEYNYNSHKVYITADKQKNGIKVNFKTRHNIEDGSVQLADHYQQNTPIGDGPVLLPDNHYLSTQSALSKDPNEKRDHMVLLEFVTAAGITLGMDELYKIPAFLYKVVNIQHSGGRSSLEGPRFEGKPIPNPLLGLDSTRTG

The term IC50 denotes the concentration at which inhibition is half-maximal. As to `COc1cc(F)ccc1Oc1ccc(S(=O)(=O)Nc2ccc(F)cn2)cc1C#N` [Example 160, 3-cyano-4-(4-fluoro-2-methoxyphenoxy)-N-(5-fluoropyridin-2-yl)benzenesulfonamide], the IC50 was greater than 10000 nM.

For `CC(C)(C)c1cc(Oc2ccc(S(=O)(=O)Nc3ccc(F)cn3)cc2C#N)ccc1C#N` [Example 161, 4-(3-tert-butyl-4-cyanophenoxy)-3-cyano-N-(5-fluoropyridin-2-yl)benzenesulfonamide], the IC50 is greater than 10000 nM. The result for `COc1cc(Cl)cc(Oc2ccc(S(=O)(=O)Nc3ccc(F)cn3)cc2C#N)c1` [Example 162, 4-(3-chloro-5-methoxyphenoxy)-3-cyano-N-(5-fluoropyridin-2-yl)benzenesulfonamide] reads 125 nM.

Consider `N#Cc1cc(S(=O)(=O)Nc2ccc(F)cn2)ccc1Oc1ccc(Br)cc1` [Example 163, 4-(4-bromophenoxy)-3-cyano-N-(5-fluoropyridin-2-yl)benzenesulfonamide], for which the half-maximal inhibitory concentration (IC50) is greater than 10000 nM.

As to `CC(C)c1cc(Oc2ccc(S(=O)(=O)Nc3ccc(F)cn3)cc2C#N)ccc1Cl` [Example 164, 4-[4-chloro-3-(propan-2-yl)phenoxy]-3-cyano-N-(5-fluoropyridin-2-yl)benzenesulfonamide], the IC50 turned out to be 6160 nM. Regarding `COc1c(F)ccc(Oc2ccc(S(=O)(=O)Nc3ccc(F)cn3)cc2C#N)c1C` [Example 165, 3-cyano-4-(4-fluoro-3-methoxy-2-methylphenoxy)-N-(5-fluoropyridin-2-yl)benzenesulfonamide], the IC50 is 139 nM. In the case of `COc1ccc(F)c(Oc2ccc(S(=O)(=O)Nc3ccc(F)cn3)cc2C#N)c1` [Example 166, 3-cyano-4-(2-fluoro-5-methoxyphenoxy)-N-(5-fluoropyridin-2-yl)benzenesulfonamide] it was 116 nM; in that of `N#Cc1cc(S(=O)(=O)Nc2ccc(F)cn2)ccc1Oc1ccc(F)c(F)c1Cl` [Example 167, 4-(2-chloro-3,4-difluorophenoxy)-3-cyano-N-(5-fluoropyridin-2-yl)benzenesulfonamide], 50 nM; in that of `COc1ccc(Oc2ccc(S(=O)(=O)Nc3ccc(F)cn3)cc2C#N)c(Cl)c1` [Example 168, 4-(2-chloro-4-methoxyphenoxy)-3-cyano-N-(5-fluoropyridin-2-yl)benzenesulfonamide], 612 nM. In the case of `Cc1ccc(Cl)c(C)c1Oc1ccc(S(=O)(=O)Nc2ccc(F)cn2)cc1C#N` [Example 169, 4-(3-chloro-2,6-dimethylphenoxy)-3-cyano-N-(5-fluoropyridin-2-yl)benzenesulfonamide] it was 134 nM; in that of `N#Cc1cc(S(=O)(=O)Nc2ccc(F)cn2)ccc1Oc1cc(Cl)ccc1Cl` [Example 170, 3-cyano-4-(2,5-dichlorophenoxy)-N-(5-fluoropyridin-2-yl)benzenesulfonamide], 570 nM.

Take `Cc1cc(Oc2ccc(S(=O)(=O)Nc3ccc(F)cn3)cc2C#N)cc(Cl)c1C` [Example 171, 4-(3-chloro-4,5-dimethylphenoxy)-3-cyano-N-(5-fluoropyridin-2-yl)benzenesulfonamide]: the IC50 is 215 nM. With `Cc1c(F)ccc(Oc2ccc(S(=O)(=O)Nc3ccc(F)cn3)cc2C#N)c1C` [Example 172, 3-cyano-4-(4-fluoro-2,3-dimethylphenoxy)-N-(5-fluoropyridin-2-yl)benzenesulfonamide], the midpoint of inhibition, the IC50, lay at 502 nM. In the case of `COc1c(Oc2ccc(S(=O)(=O)Nc3ccc(F)cn3)cc2C#N)ccc(F)c1C` [Example 173, 3-cyano-4-(4-fluoro-2-methoxy-3-methylphenoxy)-N-(5-fluoropyridin-2-yl)benzenesulfonamide] it was 131 nM; in that of `Cc1ccc(C(C)C)cc1Oc1ccc(S(=O)(=O)Nc2ccc(F)cn2)cc1C#N` [Example 174, 3-cyano-N-(5-fluoropyridin-2-yl)-4-[2-methyl-5-(propan-2-yl)phenoxy]benzenesulfonamide], greater than 10000 nM. In the case of `Cc1ccc(Oc2ccc(S(=O)(=O)Nc3ccc(F)cn3)cc2C#N)c(C)c1Cl` [Example 175, 4-(3-chloro-2,4-dimethylphenoxy)-3-cyano-N-(5-fluoropyridin-2-yl)benzenesulfonamide] it was 455 nM; in that of `N#Cc1cc(S(=O)(=O)Nc2ccc(F)cn2)ccc1Oc1cc(F)ccc1Cl` [Example 176, 4-(2-chloro-5-fluorophenoxy)-3-cyano-N-(5-fluoropyridin-2-yl)benzenesulfonamide], 1020 nM. The result for `N#Cc1cc(S(=O)(=O)Nc2ccc(F)cn2)ccc1Oc1cc(F)c(F)cc1Cl` [Example 177, 4-(2-chloro-4,5-difluorophenoxy)-3-cyano-N-(5-fluoropyridin-2-yl)benzenesulfonamide] reads 246 nM; that for `Cc1ccc(Oc2ccc(S(=O)(=O)Nc3ccc(F)cn3)cc2C#N)c(Cl)c1C` [Example 178, 4-(2-chloro-3,4-dimethylphenoxy)-3-cyano-N-(5-fluoropyridin-2-yl)benzenesulfonamide], greater than 10000 nM. For `N#Cc1cc(S(=O)(=O)Nc2ccc(F)cn2)ccc1Oc1cccc(Cl)c1C#N` [Example 179, 4-(3-chloro-2-cyanophenoxy)-3-cyano-N-(5-fluoropyridin-2-yl)benzenesulfonamide], the half-maximal inhibitory concentration (IC50) is greater than 728 nM.

`N#Cc1cc(S(=O)(=O)Nc2ccc(F)cn2)ccc1Oc1cnc(C2CC2)c(Cl)c1` [Example 180, 4-[(5-chloro-6-cyclopropylpyridin-3-yl)oxy]-3-cyano-N-(5-fluoropyridin-2-yl)benzenesulfonamide]: the IC50 was 877 nM. The result for `COc1cccc(Oc2ccc(S(=O)(=O)Nc3ccc(F)cn3)cc2C#N)c1C` [Example 181, 3-cyano-N-(5-fluoropyridin-2-yl)-4-(3-methoxy-2-methylphenoxy)benzenesulfonamide] reads greater than 10000 nM; that for `COc1cc(C)cc(Oc2ccc(S(=O)(=O)Nc3ccc(F)cn3)cc2C#N)c1` [Example 182, 3-cyano-N-(5-fluoropyridin-2-yl)-4-(3-methoxy-5-methylphenoxy)benzenesulfonamide], 175 nM. The result for `N#Cc1cc(S(=O)(=O)Nc2ccc(F)cn2)ccc1Oc1ccc(F)cc1` [Example 183, 3-cyano-4-(4-fluorophenoxy)-N-(5-fluoropyridin-2-yl)benzenesulfonamide] reads 183 nM; that for `Cc1ncccc1Oc1ccc(S(=O)(=O)Nc2ccc(F)cn2)cc1C#N` [Example 184, 3-cyano-N-(5-fluoropyridin-2-yl)-4-[(2-methylpyridin-3-yl)oxy]benzenesulfonamide], 385 nM. The result for `Cc1ccccc1Oc1ccc(S(=O)(=O)Nc2ccc(F)cn2)cc1C#N` [Example 186, 3-cyano-N-(5-fluoropyridin-2-yl)-4-(2-methylphenoxy)benzenesulfonamide] reads 324 nM. The compound `N#Cc1cc(S(=O)(=O)Nc2ccc(F)cn2)ccc1Oc1ccccn1` [Example 187, 3-cyano-N-(5-fluoropyridin-2-yl)-4-(pyridin-2-yloxy)benzenesulfonamide] gave an IC50 greater than 10000 nM. In the case of `COc1ccc(Oc2ccc(S(=O)(=O)Nc3ccc(F)cn3)cc2C#N)cc1` [Example 188, 3-cyano-N-(5-fluoropyridin-2-yl)-4-(4-methoxyphenoxy)benzenesulfonamide] it was 3740 nM. In the case of `N#Cc1cc(S(=O)(=O)Nc2ccc(F)cn2)ccc1Oc1ccccc1Br` [Example 189, 4-(2-bromophenoxy)-3-cyano-N-(5-fluoropyridin-2-yl)benzenesulfonamide] it was 103 nM.
